Patent publication US7732485B2, “Treatment of cancer” (The University of Manchester, priority 2003, dated 2010)
pIC50: −log10 of the molar value.

What was measured:
cor123 = experiment: Comet assay, DNA crosslinking; format: cell-based, human; conditions: ratio >1 = more cross-linking in parental than in platinum-resistant line
Description: (§1) Preliminary studies have been carried out to investigate the mechanism underlying this increased sensitivity. These studies were carried out using the Comet assay (described in Appendix C), which measures damage to DNA. The results are shown in FIGS. 1 (cisplatinum), 2 (carboplatinum), 3 to 8 (compounds A-F) and 9 (phenylgoldtriphenylphospine, PAuP).
(§2) Table 3 illustrates the results of the following calculation using the DNA cross-linking results obtained in the Comet assays:
(§3) DNA damage was measured by the single cell gel electrophoresis (SCGE) assay or “Comet assay”, originally developed by Ostling and Johnson^8. This is a method for determining the extent of DNA damage and repair capacity within individual cells.^9-11 It has previously been shown that this technique can be used to investigate the mechanism of action of different DNA damaging agents.^12
(§4) Cells were trypsinised, suspended in 0.5 ml of ice cold fresh medium and transferred into plastic 24-well dishes prior to embedding in agarose. For the cross-linking studies treated and control samples were chilled on ice (to prevent any repair of DNA damage) and irradiated to a dose of 20 Gy in a Caesium-137 source (0.4 Gy/min). Control, (unirradiated, non-drug treated cells) were maintained on ice in the same manner as treated samples.
(§5) Glass microscope slides, frosted at one end, were pre-coated with 1% normal agarose in distilled water. These slides were allowed to air dry overnight prior to use. A 1% low melting point agarose (LMP) mixture in PBS was melted and held at 45° C. 1 ml of LMP was then added to 0.5 ml of cell suspension on ice and the resultant mixture was pipetted onto a pre-coated glass microscope slide and allowed to set for 1-2 minutes before being transferred to an ice tray. The slides were immersed in ice cold lysis solution (100 mM EDTA, 10 mM Tris-HCl, 1% Triton ×100, 1% DMSO, 2.5M NaCl) for 1 hr, and washed three times by immersion in fresh double distilled water for 15 minutes.
(§6) Slides were then placed onto a flat bed electrophoresis tank and covered (5-6 mm) with alkali unwinding solution (50 mM NaOH, 1 mM EDTA buffered to pH 12.5) and left under subdued lighting for 45 minutes to allow the DNA to unwind before being subjected to electrophoresis at 0.6V/cm for 25 minutes. Each slide was rinsed with 2×1 ml of 0.4M Tris-HCl, pH 8.0 and allowed to dry in air. The dried slides were then rehydrated for 20 minutes with double distilled water, 2×1 ml of propidium iodide solution (2.5 μg/ml) was added and staining was allowed to proceed for 15 minutes. Slides were then immersed in 1 litre of double distilled water for 1 hour to reduce excess background staining. The slides were cover slipped and then examined at 250× magnification under an epifluorescent microscope (Zeiss-Jenamed) using green light from a 50 watt mercury source with a 580 nm reflector and a 590 nm barrier filter set. Images were captured using an attached Sony HAD-1 interline CCD camera and Komet software analysis package (Kinetic Imaging). Twenty-five images from each of two duplicate slides were captured and analysed and the individual “comet moments” as defined by Olive et al^13, were calculated. The total fluorescence of the image represents the amount of DNA present and the length of the image, measured in pixels, represents the length of migration of the DNA. The head and tail areas of the image were identified and the intensity of each was determined. The tail moment is calculated by multiplying the fraction of DNA present in the tail by half the length of the tail.

A2780cis = experiment: Comet assay, DNA crosslinking; format: cell-based, human; conditions: ratio >1 = more cross-linking in parental than in platinum-resistant line
Description: as §1, §2, §3, §4, §5, §6

A2780mcp1 = experiment: Comet assay, DNA crosslinking; format: cell-based, human; conditions: ratio >1 = more cross-linking in parental than in platinum-resistant line
Description: as §1, §2, §3, §4, §5, §6

ccu24 = experiment: Comet assay, DNA crosslinking; format: cell-based, human; conditions: ratio >1 = more cross-linking in parental than in platinum-resistant line
Description: as §1, §2, §3, §4, §5, §6

A2780/mcp8 = experiment: Comet assay, DNA crosslinking; format: cell-based, human; conditions: ratio >1 = more cross-linking in parental than in platinum-resistant line
Description: as §1, §2, §3, §4, §5, §6

A2780carb = experiment: Comet assay, DNA crosslinking; format: cell-based, human; conditions: ratio >1 = more cross-linking in parental than in platinum-resistant line
Description: as §1, §2, §3, §4, §5, §6

cor123/cpr cell line = experiment: Growth inhibition assay (modified MTT); format: cell-based, human; conditions: five-day MTT
Description: (§7) The sensitivities of the cell lines to cisplatinum, carboplatinum, and compounds A-F were determined using a growth inhibition assay which was a modified version of the MTT method (modified version of MTT method described in Appendix B).
(§8) The following is a brief description of the eleven different cell lines used in the growth inhibition assay: • The A2780 cell line (1 in FIGS. 1-9) is a human ovarian cell line which is sensitive to cisplatinum and carboplatinum. […] The cor123/cpr (7) cell line is a modified version of the cor123 cell line which has been modified to be resistant to cisplatinum and carboplatinum. • The ccu24 (8) cell line is an epithelial ovarian cancer cell line, developed at the Christie Hospital from a tumour biopsy, and the ccu24/cpr (9) cell line is a modified version of this cell line which is cisplatinum and carboplatinum resistant. • L1210 (10) is a murine leukemia cell line and L1210/M1140 (11) is its platinum drug resistant subline.
(§9) The cell toxicity studies were performed using a modification of the method MTT.^7 The principle of the assay is to assess the growth inhibitory effect of a drug at various doses over a five-day time course. This assay was performed in 96-well microtitre plates. Cells were seeded at densities of 400-1,000 cells per well, depending on the doubling time of the cell line. All cell dilutions were performed in growth medium containing 10% FCS (foetal calf serum).
(§10) Compounds under investigation were dissolved in DMSO (dimethylsulphoxide). Serial dilutions of compound were made into the cell suspension, ensuring that the proportion of DMSO remained below 0.5%. 200 μl of cells and drug mix was added to the 96-well plates in triplicate. The plates were incubated for five days at 5% CO2 and 37° C. After this time, the plates were removed from the incubator and 50 μl of a 3 mg/ml solution of MTT [3-(4,5-dimethyl-thiazol-2-yl)-2,5-diphenyl tetrazolium bromide] was added to each well and incubated in the same conditions for another 3 hours. The medium from each well was aspirated and the formazan crystals were solubilised in 200 μl of DMSO. The plates were read using a Multiskan platereader at 540 nm and 690 nm. Growth inhibition curves were constructed using mean and standard deviation of the triplicate absorbance values and from these curves the IC50 values were calculated.

mcp8 cell line = experiment: Growth inhibition assay (modified MTT); format: cell-based, human; conditions: five-day MTT
Description: as §7, §8, §9, §10

A2780cis cell line = experiment: Growth inhibition assay (modified MTT); format: cell-based, human; conditions: for pIC50: A2780cis, five-day MTT
Description: as §7, §8, §9, §10

A2780carb cell line = experiment: Growth inhibition assay (modified MTT); format: cell-based, human; conditions: for pIC50: A2780carb, five-day MTT
Description: as §7, §8, §9, §10

ccu24 cell line = experiment: Growth inhibition assay (modified MTT); format: cell-based, human; conditions: five-day MTT
Description: as §7, §8, §9, §10

mcp1 cell line = experiment: Growth inhibition assay (modified MTT); format: cell-based, human; conditions: five-day MTT
Description: as §7, §8, §9, §10

cor123 cell line = experiment: Growth inhibition assay (modified MTT); format: cell-based, human; conditions: five-day MTT
Description: as §7, §8, §9, §10

ccu24/cpr cell line = experiment: Growth inhibition assay (modified MTT); format: cell-based, human; conditions: five-day MTT
Description: as §7, §8, §9, §10

A2780-S cell line = experiment: Growth inhibition assay (modified MTT); format: cell-based, human; conditions: five-day MTT
Description: as §7, §8, §9, §10

L1210 = experiment: Comet assay, DNA crosslinking; format: cell-based, murine; conditions: ratio >1 = more cross-linking in parental than in platinum-resistant line
Description: as §1, §2, §3, §4, §5, §6

L1210 cell line = experiment: Growth inhibition assay (modified MTT); format: cell-based, murine; conditions: five-day MTT
Description: as §7, §8, §9, §10

L1210/M1140 cell line = experiment: Growth inhibition assay (modified MTT); format: cell-based, murine; conditions: five-day MTT
Description: as §7, §8, §9, §10

[1] = Table 1, first series of assays
[2] = Table 2, further series of assays
[3] = Table 1, first series of assays, mcp8
[4] = Table 2, further series of assays, A2780/mcp8
[5] = Table 1, first series of assays, mcp1
[6] = Table 2, further series of assays, A2780/mcp1

Row | Molecule | DNA crosslinking (Comet) ratio (cor123) | DNA crosslinking (Comet) ratio (A2780cis) | DNA crosslinking (Comet) ratio (A2780mcp1) | DNA crosslinking (Comet) ratio (ccu24) | DNA crosslinking (Comet) ratio (A2780/mcp8) | DNA crosslinking (Comet) ratio (A2780carb) | pIC50 (cor123/cpr cell line; [1]) | pIC50 (cor123/cpr cell line; [2]) | pIC50 (mcp8 cell line; [3]) | pIC50 (mcp8 cell line; [4]) | pIC50 (A2780cis cell line; [1]) | pIC50 (A2780cis cell line; [2]) | pIC50 (A2780carb cell line; [1]) | pIC50 (A2780carb cell line; [2]) | pIC50 (ccu24 cell line; [1]) | pIC50 (ccu24 cell line; [2]) | pIC50 (mcp1 cell line; [5]) | pIC50 (mcp1 cell line; [6]) | pIC50 (cor123 cell line; [1]) | DNA crosslinking (Comet) ratio (L1210) | other results
1 | c1ccc([PH]([Au][c]2cc[c]([Au][PH](c3ccccc3)(c3ccccc3)c3ccccc3)cc2)(c2ccccc2)c2ccccc2)cc1 [A, 1,4-bis-(triphenylphospinogold(I))benzene] | 0.56 | 0.50 | 0.59 | 0.40 | 0.60 | 0.53 | 8.82 | 8.35 | 9.22 | 8.34 | 9.70 | 9.30 | 9.22 | 9.05 | 7.60 | 7.55 | 9.30 | 8.46 | 7.71 | 0.69 | sensitivity of A2780cis relative to parental A2780-S line (A2780cis cell line; from IC50 0.2 nM vs 13.4 nM): over sixty-times more sensitive; sensitivity of A2780carb relative to parental A2780-S line (A2780carb cell line; from IC50 0.6 nM vs 13.4 nM): over twenty-times more sensitive; pIC50 (cor123 cell line; [2]): 7.65; pIC50 (ccu24/cpr cell line; [1]): 8.44; pIC50 (ccu24/cpr cell line; [2]): 8.19; pIC50 (A2780-S cell line; [1]): 7.87; pIC50 (A2780-S cell line; [2]): 7.78; pIC50 (L1210 cell line; [1]): 7.42; pIC50 (L1210 cell line; [2]): 7.38; pIC50 (L1210/M1140 cell line; [1]): 8.19; pIC50 (L1210/M1140 cell line; [2]): 8.04
2 | [Au][c]1ccc[c]([Au])c1.c1ccc(P(c2ccccc2)c2ccccc2)cc1.c1ccc(P(c2ccccc2)c2ccccc2)cc1 [B] | 0.38 | 0.36 | 0.40 | 0.39 | 0.39 | 0.37 | 8.92 | 8.37 | 9.40 | 8.27 | 9.70 | 9.22 | 9.40 | 9.15 | 7.73 | 7.66 | 9.40 | 8.46 | 7.90 | 0.47 | pIC50 (cor123 cell line; [2]): 7.80; pIC50 (ccu24/cpr cell line; [1]): 8.68; pIC50 (ccu24/cpr cell line; [2]): 8.29; pIC50 (A2780-S cell line; [1]): 8.01; pIC50 (A2780-S cell line; [2]): 7.92; pIC50 (L1210 cell line; [1]): 7.58; pIC50 (L1210 cell line; [2]): 7.53; pIC50 (L1210/M1140 cell line; [1]): 8.39; pIC50 (L1210/M1140 cell line; [2]): 8.14
3 | c1ccc([PH]([Au][c]2cccc[c]2[Au][PH](c2ccccc2)(c2ccccc2)c2ccccc2)(c2ccccc2)c2ccccc2)cc1 [Compound C] | 0.38 | 0.36 | 0.38 | 0.37 | 0.41 | 0.36 | 8.85 | 8.36 | 9.30 | 8.34 | 9.52 | 9.22 | 9.30 | 9.10 | 7.69 | 7.63 | 9.30 | 8.46 | 7.84 | 0.71 | pIC50 (cor123 cell line; [2]): 7.75; pIC50 (ccu24/cpr cell line; [1]): 8.48; pIC50 (ccu24/cpr cell line; [2]): 8.20; pIC50 (A2780-S cell line; [1]): 7.89; pIC50 (A2780-S cell line; [2]): 7.82; pIC50 (L1210 cell line; [1]): 7.37; pIC50 (L1210 cell line; [2]): 7.34; pIC50 (L1210/M1140 cell line; [1]): 8.28; pIC50 (L1210/M1140 cell line; [2]): 8.08
4 | c1ccc([PH]([Au][CH2]c2cc[c]([Au][PH](c3ccccc3)(c3ccccc3)c3ccccc3)cc2)(c2ccccc2)c2ccccc2)cc1 [D] | 0.62 | 0.54 | 0.48 | 0.47 | 0.50 | 0.63 | 7.80 | 7.71 | 8.17 | 7.83 | 8.14 | 7.99 | 7.99 | 7.87 | 7.44 | 7.40 | 8.08 | 7.71 | 7.65 | 0.63 | pIC50 (cor123 cell line; [2]): 7.60; pIC50 (ccu24/cpr cell line; [1]): 7.90; pIC50 (ccu24/cpr cell line; [2]): 7.81; pIC50 (A2780-S cell line; [1]): 7.49; pIC50 (A2780-S cell line; [2]): 7.44; pIC50 (L1210 cell line; [1]): 7.31; pIC50 (L1210 cell line; [2]): 7.30; pIC50 (L1210/M1140 cell line; [1]): 7.76; pIC50 (L1210/M1140 cell line; [2]): 7.69
5 | [Au(η2-C6H4CH═NC6H5)Cl2] [Au (III), reference compound] | 0.83 | 0.67 | 0.72 | 0.78 | 0.69 | 0.71 | – | – | – | – | – | – | – | – | – | – | – | – | – | 0.54 | –
